Patent publication US20240317712A1, “[…] DERIVATIVES AS INHIBITORS OF […]-PEPTIDE CYCLOTRANSFERASE AND […]-PEPTIDE CYCLOTRANSFERASE LIKE PROTEIN” (Boehringer Ingelheim International GmbH, priority 2023, published 2024)

Test system: SIRPα signalling induced by A549 cells
Test: Assay B: SIRPα signalling assay using A549 cells
Type: cell-based
Conditions: Homo sapiens, 48 h compound incubation, Jurkat PathHunter SIRPaV1 reporter cells, read-out: Inhibition of SIRPα signalling induced by A549 cells: IC50
Method: (§1) Two cell types are independently used: the Raji cell line (lymphoblast-like human cell line derived from B lymphocytes from a Burkitt's lymphoma patient in 1963) and A549 cells (adenocarcinoma human alveolar basal epithelial cells).
(§2) Test compounds were dissolved in 100% DMSO and serially diluted into a white 384-well microtiter cell culture plate (PerkinElmer #60076780 in case of Raji assay; PDL-coated plates Greiner #781945 in case of A549 assay), 5000 Raji cells (ATCC #CC86) or 5000 A549 cells (ATCC #CCL-185) in Assay Complete Cell Plating reagent 30 (DiscoverX 93-0563R30B) were added per well. The assay plate was incubated for 48 h at 37° C., 95% humidity and 5% CO2. 15000 reporter cells (Jurkat PathHunter SIRPaV1, DiscoverX #93-1135C19) were added to each well, and the plate was incubated for 5 h at 37° C., 95% humidity and 5% CO2. Bioassay reagent 1 of the PathHunter Bioassay detection kit (DiscoverX 93-0001) was added to each well of the plate using a multichannel pipette followed by a 15 min incubation at room temperature. Afterwards bioassay reagent 2 was added followed by 60 min incubation at room temperature (incubation in the dark). The analysis of the data was performed using the luminescence signal generated by beta-galactosidase in the PathHunter reporter cell line. The luminescence measurement was done using a Pherastar Multi-Mode Reader. Dose-response curves & IC50 data were calculated with 4-parameter sigmoidal dose response formula.

| SMILES | IC50 [nM] |
| --- | --- |
| Cn1cnnc1C1CCN(c2c(C#N)cc(Cl)cc2-c2ccc(F)nc2)CC1 [Example 16] | 18 |
| COc1ccc(C#N)c(N2CCC(F)(c3nncn3C)CC2)c1-c1ccc(F)nc1 [Example 9] | 6 |
| Cn1cnnc1C1(F)CCN(c2c(C#N)cc(F)cc2-c2cnc3nn(C(C)(C)C)cc3c2)CC1 [Example 25] | 10 |
| Cn1cnnc1C1CCN(c2c(C#N)ccc(OCc3ccccc3)c2-c2ccc(F)nc2)CC1 [Example 12] | 14 |
| Cn1cnnc1C1CCN(c2c(C#N)cc(F)cc2-c2ccc(F)nc2)CC1 [Example 7] | 18 |
| Cn1cnnc1C1(F)CCN(c2c(-c3cnc4nn(C(C)(C)C)cc4c3)ccc(C(F)(F)F)c2C#N)CC1 [Example 30] | 8 |
| Cn1cnnc1C1(F)CCN(c2c(C#N)cc(F)cc2-c2ccc(F)nc2)CC1 [Example 6] | 16 |
| COc1cc(-c2cc(C(F)(F)F)cc(C#N)c2N2CCC(F)(c3nncn3C)CC2)cnn1 [Example 23] | 145 |
| Cn1cnnc1C1(F)CCN(c2c(C#N)cc(C(F)(F)F)cc2-c2cnc3nc(C(C)(C)C)nn3c2)CC1 [Example 2] | 7 |
| Cn1cnnc1C1(F)CCN(c2c(C#N)cc(C(F)(F)F)cc2-c2ccnnc2)CC1 [Example 5] | 21 |
| Cn1cnnc1C1(F)CCN(c2c(C#N)cc(F)cc2-c2cnc3nn(C(C)(C)C)c(Cl)c3c2)CC1 [Example 24] | 13 |

Target: T1, QPCTL (Homo sapiens, UniProt Q9NXS2)
T1 construct: made in house
T1 sequence (Q9NXS2 whole entry): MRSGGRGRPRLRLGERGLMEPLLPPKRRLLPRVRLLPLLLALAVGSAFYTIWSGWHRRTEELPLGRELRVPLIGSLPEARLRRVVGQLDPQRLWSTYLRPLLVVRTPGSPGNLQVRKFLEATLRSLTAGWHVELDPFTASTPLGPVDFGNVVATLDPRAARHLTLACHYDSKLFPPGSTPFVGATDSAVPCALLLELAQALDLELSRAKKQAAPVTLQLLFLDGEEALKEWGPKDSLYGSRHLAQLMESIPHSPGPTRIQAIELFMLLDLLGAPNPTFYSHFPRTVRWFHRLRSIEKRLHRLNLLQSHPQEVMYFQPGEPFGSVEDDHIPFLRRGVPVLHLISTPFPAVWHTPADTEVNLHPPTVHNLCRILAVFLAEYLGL
Test: Assay A: biochemical QPCTL activity assay (MALDI-TOF MS, CD47 peptide substrate)
Conditions: 0.5 nM enzyme, 10 μM CD47 peptide substrate; read-out: Inhibition of QPCTL: IC50
Method: (§3) QPCT or QPCTL dependent conversion of N-terminal glutamine to pyroglutamate of CD47 was monitored via MALDI-TOF MS. Test compounds were dissolved in 100% DMSO and serially diluted into clear 1,536-well microtiter plates. Enzymatic reactions were set up in assay buffer containing 20 mM Tris pH 7.5, 0.1 mM TCEP, 0.01% BSA, and 0.001% Tween20. […] The plates were incubated for 10 min in a humidified incubator at 24° C. Subsequently, 2.5 µL of CD47 peptide substrate surrogate (^19[…]^33) was added to each well (final concentration: 10 μM for QPCTL/20 μM for QPCT). The plates were mixed for 30 sec at 1,000 rpm and subsequently incubated for 40 min in a humidified incubator at 24° C. […] The plates were sealed with an adhesive foil, mixed for 30 s at 1,000 rpm and stored at room temperature until preparation of the MALDI target plates. MALDI target plates were prepared as described previously. […] QPCT or QPCTL activity was monitored by calculating the ratio between product and internal standard signals followed by normalization to high (100% activity) and low (0% activity) controls. Determination of compound potencies was obtained by fitting the dose-response data to a four-parameter logistical equation.

| SMILES | IC50 [nM] |
| --- | --- |
| Cn1cnnc1C1CCN(c2c(C#N)cc(Cl)cc2-c2ccc(F)nc2)CC1 [Example 16] | 2 |
| COc1ccc(C#N)c(N2CCC(F)(c3nncn3C)CC2)c1-c1ccc(F)nc1 [Example 9] | 1 |
| Cn1cnnc1C1(F)CCN(c2c(C#N)cc(F)cc2-c2cnc3nn(C(C)(C)C)cc3c2)CC1 [Example 25] | 2 |
| Cn1cnnc1C1CCN(c2c(C#N)ccc(OCc3ccccc3)c2-c2ccc(F)nc2)CC1 [Example 12] | 1 |
| Cn1cnnc1C1CCN(c2c(C#N)cc(F)cc2-c2ccc(F)nc2)CC1 [Example 7] | 2 |
| Cn1cnnc1C1(F)CCN(c2c(-c3cnc4nn(C(C)(C)C)cc4c3)ccc(C(F)(F)F)c2C#N)CC1 [Example 30] | 1 |
| Cn1cnnc1C1(F)CCN(c2c(C#N)cc(F)cc2-c2ccc(F)nc2)CC1 [Example 6] | 3 |
| COc1cc(-c2cc(C(F)(F)F)cc(C#N)c2N2CCC(F)(c3nncn3C)CC2)cnn1 [Example 23] | 21 |
| Cn1cnnc1C1(F)CCN(c2c(C#N)cc(C(F)(F)F)cc2-c2cnc3nc(C(C)(C)C)nn3c2)CC1 [Example 2] | 2 |
| Cn1cnnc1C1(F)CCN(c2c(C#N)cc(C(F)(F)F)cc2-c2ccnnc2)CC1 [Example 5] | 2 |
| Cn1cnnc1C1(F)CCN(c2c(C#N)cc(F)cc2-c2cnc3nn(C(C)(C)C)c(Cl)c3c2)CC1 [Example 24] | 2 |

Target: T2, QPCT (Homo sapiens, UniProt Q16769)
T2 construct: purchased Origine (so in the source)
T2 sequence (Q16769 29-361): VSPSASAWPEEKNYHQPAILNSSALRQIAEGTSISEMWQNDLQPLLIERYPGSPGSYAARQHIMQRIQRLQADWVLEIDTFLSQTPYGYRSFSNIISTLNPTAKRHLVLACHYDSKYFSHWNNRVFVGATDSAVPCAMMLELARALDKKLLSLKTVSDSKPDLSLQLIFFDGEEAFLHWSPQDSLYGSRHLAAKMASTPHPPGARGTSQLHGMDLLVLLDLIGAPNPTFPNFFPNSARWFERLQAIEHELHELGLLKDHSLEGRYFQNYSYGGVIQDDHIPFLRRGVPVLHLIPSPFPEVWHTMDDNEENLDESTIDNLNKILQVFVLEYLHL
Test: Assay A: biochemical QPCT activity assay (MALDI-TOF MS, CD47 peptide substrate)
Conditions: 0.5 nM enzyme, 20 μM CD47 peptide substrate; read-out: Inhibition of QPCT: IC50
Method: as §3

| SMILES | IC50 [nM] |
| --- | --- |
| Cn1cnnc1C1CCN(c2c(C#N)cc(Cl)cc2-c2ccc(F)nc2)CC1 [Example 16] | 8 |
| COc1ccc(C#N)c(N2CCC(F)(c3nncn3C)CC2)c1-c1ccc(F)nc1 [Example 9] | 1 |
| Cn1cnnc1C1(F)CCN(c2c(C#N)cc(F)cc2-c2cnc3nn(C(C)(C)C)cc3c2)CC1 [Example 25] | 1 |
| Cn1cnnc1C1CCN(c2c(C#N)ccc(OCc3ccccc3)c2-c2ccc(F)nc2)CC1 [Example 12] | 1 |
| Cn1cnnc1C1CCN(c2c(C#N)cc(F)cc2-c2ccc(F)nc2)CC1 [Example 7] | 10 |
| Cn1cnnc1C1(F)CCN(c2c(-c3cnc4nn(C(C)(C)C)cc4c3)ccc(C(F)(F)F)c2C#N)CC1 [Example 30] | 1 |
| Cn1cnnc1C1(F)CCN(c2c(C#N)cc(F)cc2-c2ccc(F)nc2)CC1 [Example 6] | 4 |
| COc1cc(-c2cc(C(F)(F)F)cc(C#N)c2N2CCC(F)(c3nncn3C)CC2)cnn1 [Example 23] | 14 |
| Cn1cnnc1C1(F)CCN(c2c(C#N)cc(C(F)(F)F)cc2-c2cnc3nc(C(C)(C)C)nn3c2)CC1 [Example 2] | 1 |
| Cn1cnnc1C1(F)CCN(c2c(C#N)cc(C(F)(F)F)cc2-c2ccnnc2)CC1 [Example 5] | 3 |
| Cn1cnnc1C1(F)CCN(c2c(C#N)cc(F)cc2-c2cnc3nn(C(C)(C)C)c(Cl)c3c2)CC1 [Example 24] | 1 |

Test system: not listed separately
Test: Assay C: Permeability in CACO-2 cells
Type: in vitro ADME
Conditions: human, pH 7.2; Caco-2, permeability B−A/permeability A−B
Method: Caco-2 cells (1-2×10^5 cells/1 cm^2 area) are seeded on filter inserts (Costar transwell polycarbonate or PET filters, 0.4 μm pore size) and cultured (DMEM) for 10 to 25 days. Compounds are dissolved in appropriate solvent (like DMSO, 1-20 mM stock solutions). […] The transport solution (TL) is applied to the apical or basolateral donor side for measuring A-B or B-A permeability (3 filter replicates), respectively. Samples are collected at the start and end of experiment from the donor and at various time intervals for up to 2 hours also from the receiver side for concentration measurement by HPLC-MS/MS or scintillation counting. Sampled receiver volumes are replaced with fresh receiver solution.
Efflux ratio (ER)=permeability B−A/permeability A−B

| SMILES | efflux ratio |
| --- | --- |
| Cn1cnnc1C1CCN(c2c(C#N)cc(Cl)cc2-c2ccc(F)nc2)CC1 [Example 16] | 3.3 |
| COc1ccc(C#N)c(N2CCC(F)(c3nncn3C)CC2)c1-c1ccc(F)nc1 [Example 9] | 1.9 |
| Cn1cnnc1C1(F)CCN(c2c(C#N)cc(F)cc2-c2cnc3nn(C(C)(C)C)cc3c2)CC1 [Example 25] | 9.7 |
| Cn1cnnc1C1CCN(c2c(C#N)ccc(OCc3ccccc3)c2-c2ccc(F)nc2)CC1 [Example 12] | 2.6 |
| Cn1cnnc1C1CCN(c2c(C#N)cc(F)cc2-c2ccc(F)nc2)CC1 [Example 7] | 2.1 |
| Cn1cnnc1C1(F)CCN(c2c(-c3cnc4nn(C(C)(C)C)cc4c3)ccc(C(F)(F)F)c2C#N)CC1 [Example 30] | 22.9 |
| Cn1cnnc1C1(F)CCN(c2c(C#N)cc(F)cc2-c2ccc(F)nc2)CC1 [Example 6] | 1.6 |
| COc1cc(-c2cc(C(F)(F)F)cc(C#N)c2N2CCC(F)(c3nncn3C)CC2)cnn1 [Example 23] | 4.3 |
| Cn1cnnc1C1(F)CCN(c2c(C#N)cc(C(F)(F)F)cc2-c2cnc3nc(C(C)(C)C)nn3c2)CC1 [Example 2] | 6.9 |
| Cn1cnnc1C1(F)CCN(c2c(C#N)cc(C(F)(F)F)cc2-c2ccnnc2)CC1 [Example 5] | 10.3 |
| Cn1cnnc1C1(F)CCN(c2c(C#N)cc(F)cc2-c2cnc3nn(C(C)(C)C)c(Cl)c3c2)CC1 [Example 24] | 1.7 |

Same assay, conditions: human; Caco-2, apical to basolateral, pH 7.2

| SMILES | Papp A→B [×10⁻⁶ cm/s] |
| --- | --- |
| Cn1cnnc1C1CCN(c2c(C#N)cc(Cl)cc2-c2ccc(F)nc2)CC1 [Example 16] | 23 |
| COc1ccc(C#N)c(N2CCC(F)(c3nncn3C)CC2)c1-c1ccc(F)nc1 [Example 9] | 28 |
| Cn1cnnc1C1(F)CCN(c2c(C#N)cc(F)cc2-c2cnc3nn(C(C)(C)C)cc3c2)CC1 [Example 25] | 7.5 |
| Cn1cnnc1C1CCN(c2c(C#N)ccc(OCc3ccccc3)c2-c2ccc(F)nc2)CC1 [Example 12] | 19 |
| Cn1cnnc1C1CCN(c2c(C#N)cc(F)cc2-c2ccc(F)nc2)CC1 [Example 7] | 24 |
| Cn1cnnc1C1(F)CCN(c2c(-c3cnc4nn(C(C)(C)C)cc4c3)ccc(C(F)(F)F)c2C#N)CC1 [Example 30] | 1.7 |
| Cn1cnnc1C1(F)CCN(c2c(C#N)cc(F)cc2-c2ccc(F)nc2)CC1 [Example 6] | 44 |
| COc1cc(-c2cc(C(F)(F)F)cc(C#N)c2N2CCC(F)(c3nncn3C)CC2)cnn1 [Example 23] | 13 |
| Cn1cnnc1C1(F)CCN(c2c(C#N)cc(C(F)(F)F)cc2-c2cnc3nc(C(C)(C)C)nn3c2)CC1 [Example 2] | 8.9 |
| Cn1cnnc1C1(F)CCN(c2c(C#N)cc(C(F)(F)F)cc2-c2ccnnc2)CC1 [Example 5] | 3.3 |
| Cn1cnnc1C1(F)CCN(c2c(C#N)cc(F)cc2-c2cnc3nn(C(C)(C)C)c(Cl)c3c2)CC1 [Example 24] | 46 |

Test system: SIRPα signalling induced by Raji cells
Test: Assay B: SIRPα signalling assay using Raji cells
Type: cell-based
Conditions: Homo sapiens, 48 h compound incubation, Jurkat PathHunter SIRPaV1 reporter cells, read-out: Inhibition of SIRPα signalling induced by Raji cells: IC50
Method: as §1, §2

| SMILES | IC50 [nM] |
| --- | --- |
| Cn1cnnc1C1CCN(c2c(C#N)cc(Cl)cc2-c2ccc(F)nc2)CC1 [Example 16] | 30 |
| COc1ccc(C#N)c(N2CCC(F)(c3nncn3C)CC2)c1-c1ccc(F)nc1 [Example 9] | 35 |
| Cn1cnnc1C1(F)CCN(c2c(C#N)cc(F)cc2-c2cnc3nn(C(C)(C)C)cc3c2)CC1 [Example 25] | 23 |
| Cn1cnnc1C1CCN(c2c(C#N)ccc(OCc3ccccc3)c2-c2ccc(F)nc2)CC1 [Example 12] | 20 |
| Cn1cnnc1C1CCN(c2c(C#N)cc(F)cc2-c2ccc(F)nc2)CC1 [Example 7] | 48 |
| Cn1cnnc1C1(F)CCN(c2c(-c3cnc4nn(C(C)(C)C)cc4c3)ccc(C(F)(F)F)c2C#N)CC1 [Example 30] | 19 |
| Cn1cnnc1C1(F)CCN(c2c(C#N)cc(F)cc2-c2ccc(F)nc2)CC1 [Example 6] | 47 |
| COc1cc(-c2cc(C(F)(F)F)cc(C#N)c2N2CCC(F)(c3nncn3C)CC2)cnn1 [Example 23] | 278 |
| Cn1cnnc1C1(F)CCN(c2c(C#N)cc(C(F)(F)F)cc2-c2cnc3nc(C(C)(C)C)nn3c2)CC1 [Example 2] | 14 |
| Cn1cnnc1C1(F)CCN(c2c(C#N)cc(C(F)(F)F)cc2-c2ccnnc2)CC1 [Example 5] | 19 |
| Cn1cnnc1C1(F)CCN(c2c(C#N)cc(F)cc2-c2cnc3nn(C(C)(C)C)c(Cl)c3c2)CC1 [Example 24] | 16 |
